Experiments:
Mycosphaerella arachidis [1] = assay: Efficacy of purified CtmC in-vitro, microtiter plate growth inhibition; type: cell-based; conditions: rate 10 ppm; approximately 5-6 days at 24° C.
Protocol: (§1) CtmC was dissolved in DMSO (Dimethylsulfoxid) to a final concentration of 1000 ppm to create a stock solution. A second dilutions of 1:10 was made in water+0.025% Tween 20. From this second dilution 10 μl are dispensed into a 96-well plate. To each well, 90 μl of medium with fungal spores are added and mixed, resulting in final CtmC concentrations of 10 ppm. All wells containing CtmC also contain DMSO (1%) and Tween 20 (0.0025%).
Mycosphaerella arachidis (Brown leaf spot of groundnut): Conidia of the fungus from cryogenic storage were directly mixed into nutrient broth (PDB potato dextrose broth). After placing a solution of the test compounds into a microtiter plate (96-well format) the nutrient broth containing the fungal spores was added. The test plates were incubated at 24° C. and the inhibition of growth was determined photometrically after approximately 5-6 days at 620 nm.

Botrytis cinerea [2] = assay: Greenhouse test, tomato, preventative; type: in vivo; conditions: 2 days preventative, EC50 formulation
Protocol: (§2) Purified Cyclothiazomycin C (CtmC) was formulated as an EC50 formulation. The formulation was diluted in water at rates of 100 ppm and 50 ppm of CtmC. Plants were treated with 400 L/ha of the diluted product supplemented with an adjuvant to improve sticking and spreading, resulting in a treatment of 40 g/ha and 20 g/ha of CtmC, respectively.
Botrytis cinerea tomato/preventative (Botrytis on tomato) 4-week old tomato plants cv. Roter Gnom are treated in a spray chamber with the formulated test compound diluted in water. The test plants are inoculated by spraying them with a spore suspension two days after application. The inoculated test plants are incubated at 20° C. and 95% rh in a greenhouse and the percentage leaf area covered by disease is assessed when an appropriate level of disease appears on untreated check plants (5-6 days after application).

Botrytis cinerea [3] = assay: Efficacy of purified CtmC in-vitro, microtiter plate growth inhibition; type: cell-based; conditions: rate 10 ppm; 72 hrs at 24° C.
Protocol: as §1
Botrytis cinerea (gray mould): Conidia of the fungus from cryogenic storage were directly mixed into nutrient broth (PDB potato dextrose broth). After placing a solution of the test compounds into a microtiter plate (96-well format) the nutrient broth containing the fungal spores was added.

Mycosphaerella arachidis [4] = assay: Greenhouse test, peanut (groundnut), preventative; type: in vivo; conditions: 1 day preventative, EC50 formulation
Protocol: as §2
Mycosphaerella arachidis peanut/preventative (Brown leaf spot on groundnut) 3-week old peanut plants cv. Georgia Green are sprayed in a spray chamber with the formulated test compound diluted in water. The test plants are inoculated by spraying them with a spore suspension on their lower leaf surface one day after application. After an incubation period of 4 days under a plastic hood at 23° C. and 100% rh, the inoculated test plants are kept at 23° C./20° C. (day/night) and 70% rh in a greenhouse. The percentage leaf area covered by disease is assessed when an appropriate level of disease appears on untreated check plants (12-14 days after application).

Microdochium nivale = assay: Efficacy of mixtures of streptimidone and CtmC, liquid culture in PDB, optical density 620 nm; type: cell-based; conditions: read-out: % Efficacy
[5] = tested on: Pyrenophora tritici-repentis K6186; assay: Efficacy of purified CtmC alone in-vitro, 96 well plate, OD 620 nm; type: cell-based; conditions: CtmC 10 ppm, mycelium inoculum
Protocol: CtmC was dissolved in DMSO (Dimethylsulfoxid) to a final concentration of 1000 ppm to create a stock solution. A second dilutions of 1:10 was made in water+0.025% Tween 20. From this second dilution 10 μl are dispensed into a 96 well plate. […] All wells containing CtmC also contain DMSO (1%) and Tween 20 (0.0025%). In the following table 4 some of the species were tested using several distinct isolates (internal strain number indicated) to understand variability among different isolates of the same species sampled in different locations, producing different mycotoxins (genus Fusarium), or expressing various tolerances to fungicides of the SDHI (Succinate Dehydrogenase Inhibitor), SBI (Sterol Biosynthesis Inhibitors) and/or QoI (quinone outside inhibitors) classes (example: Zymoseptoria tritici). Different isolates had variable inoculum density and number of biological repicas, as indicated.

[6] = tested on: Ramularia collo-cygni K6218; assay: as above; type: cell-based; conditions: CtmC 10 ppm
Protocol: (§3) CtmC was dissolved in DMSO (Dimethylsulfoxid) to a final concentration of 1000 ppm to create a stock solution. A second dilutions of 1:10 was made in water+0.025% Tween 20. From this second dilution 10 μl are dispensed into a 96 well plate. To each well, 90 μl of medium (PDB—potato dextrose broth, plus 0.3% agar) with fungal spores are added and mixed, resulting in final CtmC concentrations of 10 ppm. All wells containing CtmC also contain DMSO (1%) and Tween 20 (0.0025%). In the following table 4 some of the species were tested using several distinct isolates (internal strain number indicated) to understand variability among different isolates of the same species sampled in different locations, producing different mycotoxins (genus Fusarium), or expressing various tolerances to fungicides of the SDHI (Succinate Dehydrogenase Inhibitor), SBI (Sterol Biosynthesis Inhibitors) and/or QoI (quinone outside inhibitors) classes (example: Zymoseptoria tritici). Different isolates had variable inoculum density and number of biological repicas, as indicated.

Septoria glycines K5204 = assay: as above; type: cell-based; conditions: CtmC 10 ppm
Protocol: as §3

[7] = tested on: Monographella nivalis K7484; assay: as above; type: cell-based; conditions: CtmC 10 ppm
Protocol: as §3

[8] = tested on: Rhynchosporium secalis K5917; assay: as above; type: cell-based; conditions: CtmC 10 ppm
Protocol: as §3

Fusarium culmorum K6937 = assay: as above; type: cell-based; conditions: CtmC 10 ppm
Protocol: as §3

[9] = tested on: Zymoseptoria tritici K6318; assay: as above; type: cell-based; conditions: CtmC 10 ppm
Protocol: as §3

[10] = tested on: Ustilago segetum var. tritici K5349; assay: as above; type: cell-based; conditions: CtmC 10 ppm
Protocol: as §3

[11] = tested on: Cochliobolus sativus K5817; assay: as above; type: cell-based; conditions: CtmC 10 ppm
Protocol: as §3

Microdochium majus K7482 = assay: as above; type: cell-based; conditions: CtmC 10 ppm
Protocol: as §3

[12] = tested on: Colletotrichum lindemuthianum K5893; assay: as above; type: cell-based; conditions: CtmC 10 ppm
Protocol: as §3

C=C1NC(=O)CNC(=O)[C@H](CCCCN)NC(=O)[C@@]2(C)NC(=O)/C(=C/C)NC(=O)[C@H]3CSC(=N3)[C@@H](CC(N)=O)CC(=O)c3ccc(nc3[C@@H](C)NC(=O)[C@@H]3CCCN3C1=O)-c1nc(cs1)C1=N[C@H](CS1)C(=O)NC(=C)c1nc(cs1)-c1nc(cs1)C1=N[C@@H](CS1)C(=O)N[C@@H](C(=O)O)CS2 [CtmC, cyclothiazomycin C]
control of fungal growth (%) (Mycosphaerella arachidis [1]): 100%
efficacy 20 g/ha (%) (Botrytis cinerea [2]; 20 g/ha): 30%
efficacy 40 g/ha (%) (Botrytis cinerea [2]; 40 g/ha): 47%
control of fungal growth (%) (Botrytis cinerea [3]): 90%
efficacy 20 g/ha (%) (Mycosphaerella arachidis [4]; 20 g/ha): 56%
efficacy 40 g/ha (%) (Mycosphaerella arachidis [4]; 40 g/ha): 65%
Emax at 0.0333 ppm (Microdochium nivale): 19%
Emax at 0.1 ppm (Microdochium nivale): 42%
efficacy (%) [5]: 90%
optical density at 620 nm ([5]; blank 0.046, untreated 0.508): 0.094
efficacy (%) [6]: 60%
optical density at 620 nm ([6]; blank 0.043, untreated 0.231): 0.119
efficacy (%) (Septoria glycines K5204): 81%
optical density at 620 nm (Septoria glycines K5204; blank 0.044, untreated 0.414): 0.115
efficacy (%) [7]: 90%
optical density at 620 nm ([7]; blank 0.054, untreated 0.233): 0.073
efficacy (%) [8]: 95%
optical density at 620 nm ([8]; blank 0.046, untreated 0.378): 0.062
efficacy (%) (Fusarium culmorum K6937): 44%
optical density at 620 nm (Fusarium culmorum K6937; blank 0.052, untreated 0.528): 0.319
efficacy (%) [9]: 98%
optical density at 620 nm ([9]; blank 0.054, untreated 0.253): 0.059
efficacy (%) [10]: 97%
optical density at 620 nm ([10]; blank 0.044, untreated 0.304): 0.051
efficacy (%) [11]: 92%
optical density at 620 nm ([11]; blank 0.044, untreated 0.701): 0.095
efficacy (%) (Microdochium majus K7482): 96%
optical density at 620 nm (Microdochium majus K7482; blank 0.050, untreated 0.228): 0.057
efficacy (%) [12]: 45%
optical density at 620 nm ([12]; blank 0.046, untreated 0.373): 0.225

Reference: patent publication US20240334934A1, “FUNGICIDE MIXTURE” (priority 2021, published 2024)
